The subject of test [1] is rat hepatocytes in primary culture. The test can be described thus: Mitogenic assay: induction of DNA synthesis (3H-TdR incorporation) of rat hepatocytes in primary culture. It counts as cell-based. The following applies: for SA mut/wt +/- SD: Table 2, specific mitogenic activity relative to wt rhuHGF; for SA mut/wt +/- SD / SA var/SA wt +/-S.D. / SA +/- mut/wt: * = did not reach the same absolute level as wild-type huHGF; for residual SA compared to WT rhuHGF: % of WT rhuHGF specific activity; for SA var/SA wt +/-S.D.: Table 1, specific mitogenic activity of variant relative to WT rhuHGF, at least three independent assays; for SA +/- mut/wt: Table 3, alterations near or within the hairpin domain. How it is done: The biological activity of WT huHGF and variants was measured by their abilities to induce DNA synthesis of rat hepatocytes in primary culture. […] Briefly, the livers of female Sprague Dawley rats (160-180 g) were perfused through the portal vein with 100 mL of Ca^++ free Hepes buffered saline containing 0.02% Collagenase type IV (Sigma). After 20 minutes the liver was removed, placed in buffer, gently stirred to separate hepatocytes from connective tissue and blood vessels, and filtered through nylon mesh. Cells were then washed by centrifugation, resuspended at 1×10^5 cells/mL in Williams Media E (Gibco) containing Penicillin (100 U/ml), Streptomycin ([…]), L-Glutamine (2 mM), trace elements (0.01%), transfertin ([…]) and Aprotinin ([…]). […] After 48 hours incubation at 37° C., 0.5 mCi 3H-TdR (15 Ci/mmole, Amersham) was added to each well and incubated for an additional 16 hours. Cells were harvested on filter papers, which were washed, dried and counted in a Beckman counter after addition of scintillation liquid. For each huHGF variant, the specific activity (SA) expressed in units/mg was calculated at half-maximal proliferation (defined as 1 unit/mL) using the HGF concentration obtained in ELISA.

Test [2] has as its target extracellular domain of the human HGF receptor (huHGFr) fused to the Fc constant region of an human IgG. The test can be described thus: Soluble HGF receptor competitive binding assay (displacement of 125I-rhuHGF). Conditions: for Kdwt/mut: Table 2, Kd ratio wild type/mutant; for Kdwt/Kdvar +/-S.D.: Table 1, receptor binding capacity relative to WT rhuHGF, at least three independent assays; for receptor binding / Kd (in words): compared to WT rhuHGF. How it is done: The coding sequence of the extracellular domain of the huHGFr was fused to those of the human IgGl heavy chain in a two-step process. […] The 5' primer (located in the vector upstream of the HeFr coding sequences) and the 3' primer (5'-[…]-3') (SEQ. ID. NO: 21) were used in a 100 μl reaction as described above except that the extension time at 72° C. was 3 minutes, and 40 ng of the full length HGFr expression vector was used as template. […] Sequencing of the construct was carried out as described above.
The binding assay was performed in breakable microtiter plates (Nunc) coated o/n at 4° C. with […] of rabbit-anti-human IgG Fc specific antibody (Jackson Immunoresearch) and plates were carefully washed with PBS containing 0.05% Tween 20 (Biorad). […] To each well […] of serial dilutions (1:25-1:6000) of cell supernatants, purified CHO-expressed rhuHGF ([…]) or medium were added in duplicates. Subsequently, […] of 50 pM of HGF receptor:IgG fusion protein were added and the plates were incubated with gentle shaking. After 4 hours, when equilibrium was reached, plates were washed and wells were individually counted in a gamma-counter. The amount of nonspecifically bound radioactivity was estimated by incubating HGF receptor:IgG with a 500-fold excess of unlabelled rhuHGF.
On the technique in general: Displacement assays read how much labelled ligand stays bound in the presence of the test substance.

In test [3] the test system is 145 kDa β-subunit of the HGF receptor in A549 cells. Description: Induction of tyrosine phosphorylation of the HGF receptor on A549 cells (Western blot). The following applies: serum-starved A549 cells, 200 ng/mL purified protein, 5 minutes. In kind it is cell-based, human. How it is done: FIG. 4: Western blot of ligand-induced tyrosine-phosphorylation on the 145 kDa β-subunit of the HGF receptor by wild-type rhuHGF, single-chain or protease domain huHGF variants. […] Molecular masses (kilodaltons) are as indicated.
Serum-starved cells were incubated without or with 200 ng/mL rhuHGF for 5 minutes at 37° C. and extracted with lysis buffer containing 50 mM Hepes, 150 mM NaCl, 1.5 mM MgCl2, 1 mM EGTA, 10% Glycerol, 1% Triton X-100 and a cocktail of protease inhibitors. The lysates were immunoprecipitated with anti-Met COOH antibodies and blotted with anti-phosphotyrosine antibodies (see Western blotting above).

Entries after “also recorded” stand apart in the source; their conditions may differ.

The values that follow come from patent US5547856A, “Hepatocyte growth factor variants” (Genentech, Inc., priority 1993, dated 1996).

Broadly, the Kd is the constant that tells how readily two partners part at equilibrium.

“Q173A: huHGF Kringle 1 domain substitution variant”: the “SA mut/wt +/- SD” value in test [1] is given as 0.13 +/- 0.03. In test [2], the Kdwt/mut was 0.15 +/- 0.05.

Consider “L163A, S165A, S166A: huHGF Kringle 1 domain substitution variant”, for which the “SA mut/wt +/- SD” value in test [1] is listed as 0.14 +/- 0.08. For the same substance, in test [2], the Kdwt/mut is given as 1.10 +/- 0.04.

In the case of “K137A: huHGF Kringle 1 domain substitution variant”, in test [1], the “SA mut/wt +/- SD” value was 1.12 +/- 0.10. Besides, in test [2], the Kdwt/mut is given as 0.98 +/- 0.04.

As to “N193A: huHGF Kringle 1 domain substitution variant”, in test [1], the “SA mut/wt +/- SD” value is given as 0.45 +/- 0.12. Moreover, the Kdwt/mut in test [2] is reported as 0.62 +/- 0.20.

In the case of Y673S, V692S, the “tyrosine phosphorylation of the HGF receptor (in words)” value in test [3] is “reduced ability to induce phosphorylation of the HGF receptor; also recorded: not efficient in stimulating tyrosine-phosphorylation in A549 cells”. Further, in test [1], the “residual SA compared to WT rhuHGF” value is listed as “less than 3%” and the “SA var/SA wt +/-S.D.” value is recorded as under 0.02. For the same substance, in test [2], the “Kdwt/Kdvar +/-S.D.” value is on record as 1.76 +/- 0.63 and the “receptor binding / Kd (in words)” value is given as “not significantly different from WT rhuHGF”.

As for “H114A, E115A, D117A: huHGF variant with alterations near or within the hairpin domain”, the “SA +/- mut/wt” value in test [1] is under 0.02.

As to “R197A: huHGF Kringle 1 domain substitution variant”, in test [1], the “SA mut/wt +/- SD” value is reported as under 0.01. Besides, the Kdwt/mut in test [2] is reported as under 0.03.

For “K34A, R35A, R36A: huHGF variant with alterations near or within the hairpin domain”, the “SA +/- mut/wt” value in test [1] is given as 0.71 +/- 0.33.

In the case of R494E, in test [3], the “tyrosine phosphorylation of the HGF receptor (in words)” value is given as “reduced ability to induce phosphorylation of the HGF receptor; also recorded: not efficient in stimulating tyrosine-phosphorylation in A549 cells”. Besides, in test [1], the “SA var/SA wt +/-S.D.” value is on record as under 0.02. Further, in test [2], the “Kdwt/Kdvar +/-S.D.” value is 0.31 +/- 0.13.

With “F162A: huHGF Kringle 1 domain substitution variant”, the “SA mut/wt +/- SD” value in test [1] is 0.04 +/- 0.02. In addition, the Kdwt/mut in test [2] is listed as 0.05 +/- 0.01.

For “K58A, K60A, K62A, K63A, N65A: huHGF variant with alterations near or within the hairpin domain”, the “SA +/- mut/wt” value in test [1] is reported as 6.96 +/- 0.12.

“K144A, K148A: huHGF Kringle 1 domain substitution variant”: in test [1], the “SA mut/wt +/- SD” value is 0.93 +/- 0.16. The Kdwt/mut in test [2] is on record as 1.03 +/- 0.08.

Consider “R168A: huHGF Kringle 1 domain substitution variant”, for which the “SA mut/wt +/- SD” value in test [1] is reported as 0.83 +/- 0.07. In addition, in test [2], the Kdwt/mut was 0.98 +/- 0.04.

In the case of “K109A, K110A, E111A: huHGF variant with alterations near or within the hairpin domain”, the “SA +/- mut/wt” value in test [1] is recorded as 0.98 +/- 0.04.

For “F162A, L163A, S165A, S166A: huHGF Kringle 1 domain substitution variant”, the “SA mut/wt +/- SD” value in test [1] is under 0.02. Further, the Kdwt/mut in test [2] is given as 0.05 +/- 0.02.

With “Q534H, Y673S: huHGF protease domain double variant”, in test [1], the “residual SA compared to WT rhuHGF” value is reported as “less than 3%” and the “SA var/SA wt +/-S.D.” value was under 0.03. In test [2], the “Kdwt/Kdvar +/-S.D.” value is listed as 2.24 +/- 1.11 and the “receptor binding / Kd (in words)” value is recorded as “not significantly different from WT rhuHGF”.

As to “E115A: huHGF variant with alteration near or within the hairpin domain”, the “SA +/- mut/wt” value in test [1] is 0.20 +/- 0.02.

Regarding “Y198A: huHGF Kringle 1 domain substitution variant”, the “SA mut/wt +/- SD” value in test [1] is reported as 0.88 +/- 0.06. For the same substance, in test [2], the Kdwt/mut was found to be 0.77.

In the case of “K52A: huHGF variant with alteration near or within the hairpin domain”, the “SA +/- mut/wt” value in test [1] was 0.19 +/- 0.03.

With “Q534H, Y673S, V692S: huHGF protease domain triple variant”, in test [1], the “residual SA compared to WT rhuHGF” value is “less than 3%” and the “SA var/SA wt +/-S.D.” value is reported as under 0.02. In addition, in test [2], the “Kdwt/Kdvar +/-S.D.” value was 1.91 +/- 1.28 and the “receptor binding / Kd (in words)” value is recorded as “not significantly different from WT rhuHGF”.

With “Q173A, E174A, N175A: huHGF Kringle 1 domain substitution variant”, the “SA mut/wt +/- SD” value in test [1] is reported as 0.33 +/- 0.07. For the same substance, the Kdwt/mut in test [2] is on record as 0.21 +/- 0.03.

Regarding “D54A: huHGF variant with alteration near or within the hairpin domain”, the “SA +/- mut/wt” value in test [1] is listed as 0.13 +/- 0.01.

Turning to “Q534H: huHGF protease domain variant, Q534 replaced with H”, the “SA var/SA wt +/-S.D.” value in test [1] was 1.19 +/- 0.44. Also, the “Kdwt/Kdvar +/-S.D.” value in test [2] was 1.48 +/- 0.85. Further, the Kd in test [2] (binding to HGF receptor:IgG fusion protein, calculated at the IC50 from fitted inhibition curves) was 0.06 nM.

With “E159A: huHGF Kringle 1 domain substitution variant”, in test [1], the “SA mut/wt +/- SD” value was under 0.02. Besides, the Kdwt/mut in test [2] is reported as under 0.03.

“N72A, R76A, N77A, K78A: huHGF variant with alterations near or within the hairpin domain”: the “SA +/- mut/wt” value in test [1] is 0.04 +/- 0.07.

As to “R126A, N127A: huHGF variant with alterations near or within the hairpin domain”, the “SA +/- mut/wt” value in test [1] was 0.33 +/- 0.14.

Consider “Y673S: huHGF protease domain variant, Y673 replaced with S”, for which, in test [1], the “fold reduction of SA compared to wt rhuHGF” value is reported as “approximately 5 fold”, the “maximum plateau of mitogenic response” value was “approximately 50 % of wt rhuHGF plateau” and the “SA var/SA wt +/-S.D.” value was 0.27 +/- 0.07. Moreover, in test [2], the “Kdwt/Kdvar +/-S.D.” value was 1.35 +/- 0.72 and the “receptor binding / Kd (in words)” value is “Kd similar to WT rhuHGF”.

On to “K52A, D54A: huHGF variant with alterations near or within the hairpin domain”, for which the “SA +/- mut/wt” value in test [1] is 0.32 +/- 0.03.

As for “H114A: huHGF variant with alteration near or within the hairpin domain”, the “SA +/- mut/wt” value in test [1] is 0.16 +/- 0.04.

As for “R181A, E183A, E184A: huHGF Kringle 1 domain substitution variant”, in test [1], the “SA mut/wt +/- SD” value is 0.92 +/- 0.08. For the same substance, the Kdwt/mut in test [2] is 0.95 +/- 0.04.

Regarding “D117A: huHGF variant with alteration near or within the hairpin domain”, the “SA +/- mut/wt” value in test [1] was 0.02.

With “N193A, E195A, R197A: huHGF Kringle 1 domain substitution variant”, in test [1], the “SA mut/wt +/- SD” value is recorded as under 0.02. Further, the Kdwt/mut in test [2] is recorded as under 0.04.

For the substance “V692S: huHGF protease domain variant, V692 replaced with S”, in test [1], the “fold reduction of SA compared to wt rhuHGF” value is listed as about 10 fold, the “maximum plateau of mitogenic response” value is “approximately 50 % of wt rhuHGF plateau” and the “SA var/SA wt +/-S.D.” value is on record as 0.08 +/- 0.04. In addition, in test [2], the “Kdwt/Kdvar +/-S.D.” value is 1.02 +/- 0.13 and the “receptor binding / Kd (in words)” value is “Kd similar to WT rhuHGF”.
